Measured values reported in article PMC10137255, “Disturbing the Redox Balance Using Buthionine Sulfoximine Radiosensitized Somatostatin Receptor-2 Expressing Pre-Clinical Models to Peptide Receptor Radionuclide Therapy with ^177Lu-DOTATATE” (Cancers, 2023).
Values joined by “and” are separate entries in the source; they are usually repeats but may differ in a detail not shown here. Equal entries are not always repeated.

Experiments:
[1] = test system: total glutathione in HT-29 cells; test: Total glutathione quantification, HT-29; type: cell-based, human; conditions: 10^−7 M BSO for 18 h, vs non-treated, n = 6 from 2 independent experiments
Experimental: (§1) Total glutathione was assessed in cell lines and mice tissues using the Quantification kit for oxidized and reduced glutathione (Sigma), according to the manufacturer’s instructions. Cells in culture were harvested, washed and then lysed with freeze-thaw cycles and subsequently mixed with 5% 5-sulfosalicylic acid. After centrifugation at 8000× g for 10 min, the supernatant was collected, and the 5-sulfosalicylic acid concentration was reduced to 0.5% with water for glutathione quantification. Tumour, liver and kidneys were harvested, snap-frozen in liquid nitrogen and stored at −70 °C until assayed for glutathione. Tissues were homogenized in 5% 5-sulfosalicylic acid in lysing matrix D tubes (MP Biomedicals) containing ceramic beads using a FastPrep-24 homogenizer (MP Biomedicals, Irvine, CA, USA) and centrifuged at 8000× g for 10 min. The supernatant was collected, and the 5-sulfosalicylic acid concentration was reduced to 0.5% with water for glutathione quantification. The buffer solution was added to samples (either from cell lines or tissues) (in triplicates) in a 96-well plate. […] Absorbance was read at 405 nm using a microplate reader (Thermo Labsystems Multiskan EX, ThermoFisher, Waltham, MA, USA). Total glutathione concentration was determined using a calibration curve.

liver = test: H&E staining of liver; conditions: mouse, in vivo
Experimental: (§2) Liver and kidneys were harvested, fixed in PAXgene Tissue FIX (Qiagen, Hilden, Germany) for 1 day at room temperature and kept at 4 °C in PAXgene Tissue STABILIZER (Qiagen) until they were embedded in paraffin for histological studies. Staining was carried out on 4 μm paraffin-embedded tissue sections subsequently deparaffinized in xylene and rehydrated in decreasing alcohol concentrations. Slides were incubated in Mayer’s hematoxylin for 6 min and subsequently in eosin for 3 min. Slides were mounted using Tissue-Tek Prisma (Sakura, Alphen aan den Rijn, The Netherlands). Digital scans of slides were acquired with Nanozoomer NDP (Hamamatsu Photonics, Shizuoka, Japan) and analysed by an experienced clinical pathologist.

[2] = test system: total glutathione in MIA-PACA-2 cells; test: Total glutathione quantification, MIA-PACA-2; type: cell-based, human; conditions: 10^−7 M BSO for 18 h, vs non-treated, mean ± SEM, n = 6 from 2 independent experiments
Experimental: as §1

MM162 melanoma cell line = conditions: 5 MBq 177Lu-DOTATATE for 4 h and/or BSO 10^−7 M from the day before irradiation until day 10, crystal violet day 10, % of non-treated, mean ± SEM, n = 12 from 3 independent experiments
[3] = test system: total glutathione in HBL cells; test: Total glutathione quantification, HBL; type: cell-based, human; conditions: 10^−7 M BSO for 18 h, vs non-treated, mean ± SEM, n = 6 from 2 independent experiments
Experimental: as §1

[4] = test system: total glutathione in EJM tumours; test: Total glutathione in EJM tumours; type: in vivo, mouse; conditions: BSO 10 mM via drinking water (2 mmol/kg/day), summary in discussion
Experimental: (§3) Mice experiments were approved by the animal ethics committee of Université Libre de Bruxelles (Comité d’Ethique du Bien-Etre Animal (CEBEA)) and performed according to European guidelines. Female athymic nude Foxn1^nu mice (Charles River) (age = 5 to 6 weeks) were subcutaneously injected in the right flank with 1 × 10^6 EJM cells suspended in 100 µL of PBS and matrigel (1:1; Cultrex™ Basement Membrane Extract, Type 3, R&D Systems). The tumours were allowed to grow for 4 weeks before initiating treatments. At a tumour size of approximately 0.5 cm^3, mice were randomized into 4 treatment groups of 10 mice: control, ^177Lu-DOTATATE, BSO and ^177Lu-DOTATATE + BSO. […] All mice were monitored three times a week for body weight and tumour growth using a calliper. Tumour volume (mm^3) was calculated using the formula π/6 × length × width × height. The relative tumour volume was represented and calculated as (tumour volume on measured day)/(tumour volume measured at baseline). […] Another group of mice receiving ^177Lu-DOTATATE alone or in combination with BSO was sacrificed 24, 72 and 168 h post-injection (p.i.) for ex vivo biodistribution studies and early glutathione quantification (4 mice per group per time point) (Figure 1).

[5] = test system: total glutathione in COLO-677 cells; test: Total glutathione quantification, COLO-677; type: cell-based, human; conditions: 10^−7 M BSO for 18 h, vs non-treated, n = 6 from 2 independent experiments
Experimental: as §1

HBL melanoma cell line = conditions: 5 MBq 177Lu-DOTATATE for 4 h and/or BSO 10^−7 M from the day before irradiation until day 10, crystal violet day 10, % of non-treated, mean ± SEM, n = 12 from 3 independent experiments
kidneys = test: H&E staining of kidneys; conditions: mouse, in vivo
Experimental: as §2

[6] = test system: MIA-PACA-2 pancreatic adenocarcinoma cell line; conditions: 5 MBq 177Lu-DOTATATE for 4 h and/or BSO 10^−7 M from the day before irradiation until day 10, crystal violet day 10, % of non-treated, mean ± SEM, n = 12 from 3 independent experiments
[7] = test system: total glutathione in EJM cells; test: Total glutathione quantification, EJM; type: cell-based, human; conditions: 10^−7 M BSO for 18 h, vs non-treated, mean ± SEM, n = 6 from 2 independent experiments
Experimental: as §1

[8] = Water intake and tolerability in mice; conditions: EJM xenograft nude mice; BSO 10 mM in drinking water; 30 MBq 177Lu-DOTATATE IV
Experimental: as §3

[9] = test system: HT-29 colon adenocarcinoma cell line; conditions: 5 MBq 177Lu-DOTATATE for 4 h and/or BSO 10^−7 M from the day before irradiation until day 10, crystal violet day 10, % of non-treated, mean ± SEM, n = 12 from 3 independent experiments
[10] = test system: total glutathione in MM162 cells; test: Total glutathione quantification, MM162; type: cell-based, human; conditions: 10^−7 M BSO for 18 h, vs non-treated, mean ± SEM, n = 6 from 2 independent experiments
Experimental: as §1

[11] = test system: COLO-677 multiple myeloma cell line; conditions: 5 MBq 177Lu-DOTATATE for 4 h and/or BSO 10^−7 M from the day before irradiation until day 10, crystal violet day 10, % of non-treated, mean ± SEM, n = 12 from 3 independent experiments
[12] = set-up: method as in PMID 27092812, PMID 8270977, PMID 8558205, PMID 9392620; conditions: early-phase clinical studies on solid tumours; cited from earlier work
[13] = cited from earlier work
Experimental: The optimal combination treatment schedule would still have to be determined, which would be the one allowing the use of the minimal effective dose of BSO, i.e., the dose necessary to achieve sufficient tumour GSH depletion to have an efficient tumour radiosensitization, without excessive healthy tissue toxicity. The rapid clearance of BSO (estimated half-life in plasma of less than 2 h) and the rapid rate of GSH turnover would allow one to closely control GSH levels with BSO and allow for a GSH depletion only during tumour irradiation with ^177Lu-DOTATATE, limiting the potential ...

[14] = test system: EJM multiple myeloma xenograft; test: Tumour growth (calliper), EJM xenograft; type: in vivo, mouse; conditions: 30 MBq 177Lu-DOTATATE IV day 28 and/or 10 mM BSO drinking water 3 weeks, exponential growth fit, [95% CI], 8 to 10 mice per group
Experimental: as §3

[15] = test system: EJM multiple myeloma cell line; conditions: 5 MBq 177Lu-DOTATATE for 4 h and/or BSO 10^−7 M from the day before irradiation until day 10, crystal violet day 10, % of non-treated, mean ± SEM, n = 12 from 3 independent experiments
bone marrow [16] = test: Bone marrow apoptosis assessment (Annexin V/7-AAD); type: in vivo, mouse; conditions: mice sacrificed 29 to 38 days post-177Lu-DOTATATE injection; Annexin V/7-AAD flow cytometry; mean ± SEM; 3 to 4 mice per group
Experimental: At the time of sacrifice, bone marrow (BM) was harvested from both femurs (containing hematopoietically active marrow) of the animals. Femurs were excised from each mouse, and then the attached muscle was trimmed from the periosteal surface and the bone was opened at the distal end. BM was isolated using the cytocentrifuge method. In brief, the femur was placed in a 0.5 mL Eppendorf tube pre-punctured with a needle at the base of the tube to form an opening. The 0.5 mL tube was nested within a 1.5 mL Eppendorf tube, and both were centrifuged at 10,000 rpm for 15 s to form a BM pellet at the bottom of the 1.5 mL Eppendorf tube yet to retain the femur within the 0.5 mL tube. • Bone marrow smears and cytological assessment. BM samples were assayed for apoptosis. A 10 min incubation step at 37 °C with NH4Cl was performed for red blood cell lysis. Samples were then centrifuged for 5 min, and the supernatant containing lysed red blood cells was discarded. Samples were then incubated with Annexin-V Binding Buffer (ThermoFisher, Waltham, MA, USA), Annexin V (BD Biosciences, Franklin Lakes, NJ, USA) and 7-AAD (BD Biosciences, Franklin Lakes, NJ, USA) for 15 min at room temperature. Annexin Buffer was added to samples that were subsequently analysed using a MACSQuant Analyzer 10 Flow Cytometer (Miltenyi Biotec, Bergisch Gladbach, Germany).

bone marrow [17] = test: Bone marrow smears and cytological assessment; type: in vivo, mouse; conditions: 29 to 38 days p.i.
Experimental: At the time of sacrifice, bone marrow (BM) was harvested from both femurs (containing hematopoietically active marrow) of the animals. Femurs were excised from each mouse, and then the attached muscle was trimmed from the periosteal surface and the bone was opened at the distal end. BM was isolated using the cytocentrifuge method. In brief, the femur was placed in a 0.5 mL Eppendorf tube pre-punctured with a needle at the base of the tube to form an opening. The 0.5 mL tube was nested within a 1.5 mL Eppendorf tube, and both were centrifuged at 10,000 rpm for 15 s to form a BM pellet at the bottom of the 1.5 mL Eppendorf tube yet to retain the femur within the 0.5 mL tube. • Bone marrow smears and cytological assessment.
BM smears were prepared using the push-slide technique. In brief, one drop of BM was placed at one extremity of a glass slide and was then spread in an even film using a second glass slide (held at an angle) as a spreader. The spreader slide was slid forward the length of the slide to produce a smear. Slides were fixed in absolute methanol for 5 min and then air-dried. May-Grunwald–Giemsa staining was used for routine evaluation of BM cytomorphology. […] A qualitative and quantitative cytological evaluation of all the major lineages was performed by an experienced clinical pathologist on 300 to 500 cells. • Bone marrow apoptosis assessment.

EJM xenograft mice = test: Ex vivo biodistribution and time-activity curves; type: in vivo, mouse; conditions: 30 MBq 177Lu-DOTATATE IV ± 10 mM BSO via drinking water, single exponential fit of time-activity curve, n = 1 to 6 mice per group
Experimental: as §3

SMILES: CCCCS(=N)(=O)CC[C@H](N)C(=O)O (stereo partly drawn) [BSO, L-Buthionine-(S,R)-Sulfoximine]
- change in total glutathione levels [1]: not affected
- liver histology (H&E) (liver): No morphological changes were observed
- change in total glutathione levels [2]: −20.7 ± 3.5%
- cell survival (MM162 melanoma cell line): did not affect cell lines survival
- change in total glutathione levels [3]: −21.5 ± 3.0%
- tumour GSH depletion [4]: ~ 80%
- change in total glutathione levels [5]: not affected
- cell survival (HBL melanoma cell line): 81.2 ± 3.8%
- kidney histology (H&E) (kidneys): No morphological changes were observed
- cell survival [6]: 87.6 ± 3.8%
- change in total glutathione levels [7]: −9.4 ± 2.2%
- water intake [8]: 5.6 ± 0.6 mL/day/mouse
- cell survival [9]: did not affect cell lines survival
- change in total glutathione levels [10]: −11.1 ± 3.7%
- cell survival [11]: did not affect cell lines survival
- adverse events caused by BSO alone [12]: only grade 1–2 nausea and vomiting
- estimated half-life in plasma [13]: less than 2 h
- Tumour doubling time [14]: 7.5 days and 7.5 [6.3 – 9.1] days
- cell survival [15]: did not affect cell lines survival

SMILES: C[C@@H](O)[C@H](NC(=O)[C@@H]1CSSC[C@H](NC(=O)[C@@H](Cc2ccccc2)NC(=O)CN2CCN(CC(=O)O)CCN(CC(=O)O)CCN(CC(=O)O)CC2)C(=O)N[C@@H](Cc2ccc(O)cc2)C(=O)N[C@H](Cc2c[nH]c3ccccc23)C(=O)N[C@@H](CCCCN)C(=O)N[C@@H]([C@@H](C)O)C(=O)N1)C(=O)O [^177Lu-DOTATATE, metal not drawn]
- liver histology (H&E) (liver): No morphological changes were observed
- BM apoptotic cells (bone marrow [16]): 33.0 ± 2.8%
- kidney histology (H&E) (kidneys): No morphological changes were observed
- relative proportion of BM lineages (erythroid, granulocytic, lymphoid), between treatment groups (bone marrow [17]; BM smears, May-Grunwald–Giemsa, 3 to 4 mice per group): no significant differences
- qualitative assessment of BM smears (morphology) (bone marrow [17]; major BM lineages including megakaryocytes): did not show any morphological abnormalities
- water intake [8]: 5.2 ± 0.5 mL/day/mouse
- effective half-life in the kidneys (EJM xenograft mice): 13.7 h
- effective half-life in the liver (EJM xenograft mice): 24 h
